Where two headings read alike, the source gives them in different places. Blank lines part the entries; values can stand above or below the compound they belong to. Peptide text beside a SMILES is read from it.
Key:
Human QC [1] = target: T1, Human QC (Homo sapiens, UniProt Q16769); experiment: QC inhibition test, spectrophotometric, 96-well microplate; assay type: biochemical; design: corresponding to the coding region of human QC (Ala33-Leu361) was re-amplified and inserted into a pET-43.1a expression vector; Nus fusion (pET-43.1a construct) or thioredoxin fusion (pET-32a construct) (N, cleaved yes); (His)6 (pET-43.1a construct: N- and C-terminal sites; pET-32a construct: 5'-end, upstream of the Factor Xa site); made in house; host or cells: E. coli BL21 (DE3); conditions: inhibitor 140 μM, substrate H-Gln-Gln-OH 0.55 mM, human QC 28.8 nM, preincubation 5 to 10 min; for remaining activity at 140 µM: read-out: QC activity (% of control)
Protocol: Reactions were started by the addition of QC (0.04 to 2.5 μg), and the activity was monitored by recording the decrease of NADH absorbance at 340 nm.
For an inhibition test, the reaction composition was the same as described above, except for the addition of the inhibitor compound. Prior to the spectrophotometric analysis on a 96-well microplate, the enzyme was incubated with the inhibitor for 5 to 10 min.
Target sequence in this assay (Q16769 33-361): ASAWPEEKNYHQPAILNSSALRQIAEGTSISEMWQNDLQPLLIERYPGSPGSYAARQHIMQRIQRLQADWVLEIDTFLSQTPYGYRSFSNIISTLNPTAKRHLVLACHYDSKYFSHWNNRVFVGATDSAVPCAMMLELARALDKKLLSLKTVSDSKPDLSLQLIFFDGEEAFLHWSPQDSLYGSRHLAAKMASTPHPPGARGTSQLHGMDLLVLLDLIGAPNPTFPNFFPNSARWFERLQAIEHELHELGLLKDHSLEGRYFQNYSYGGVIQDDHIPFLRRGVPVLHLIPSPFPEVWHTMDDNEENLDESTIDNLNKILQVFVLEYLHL

Human QC [2] = target: T1, Human QC; design: host or cells: Pichia pastoris; conditions: substrate of human QC expressed in Pichia pastoris cell; reported by Schilling et al.; cited from earlier work
Target sequence in this assay (Q16769 29-361): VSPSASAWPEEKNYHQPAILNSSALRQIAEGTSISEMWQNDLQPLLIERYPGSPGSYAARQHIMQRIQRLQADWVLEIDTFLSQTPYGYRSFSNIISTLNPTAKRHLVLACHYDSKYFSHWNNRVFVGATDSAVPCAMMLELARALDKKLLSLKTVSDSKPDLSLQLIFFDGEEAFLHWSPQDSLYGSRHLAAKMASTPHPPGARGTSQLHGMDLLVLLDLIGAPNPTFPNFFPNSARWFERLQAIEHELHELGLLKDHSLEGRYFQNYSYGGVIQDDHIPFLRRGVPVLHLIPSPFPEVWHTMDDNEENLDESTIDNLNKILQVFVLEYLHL

Human QC [3] = target: T1, Human QC; design: host or cells: Pichia pastoris; conditions: substrate of human QC expressed in Drosophila S2 cell; reported by Booth et al.; cited from earlier work
Target sequence in this assay (Q16769 29-361): as above

Human QC [4] = target: T1, Human QC; experiment: Spectrophotometric QC activity assay (glutamate dehydrogenase coupled), human QC expressed in E. coli; assay type: biochemical; design: corresponding to the coding region of human QC (Ala33-Leu361) was re-amplified and inserted into a pET-43.1a expression vector; Nus fusion (pET-43.1a construct) or thioredoxin fusion (pET-32a construct) (N, cleaved yes); (His)6 (pET-43.1a construct: N- and C-terminal sites; pET-32a construct: 5'-end, upstream of the Factor Xa site); made in house; host or cells: E. coli BL21 (DE3); conditions: substrate of human QC expressed in Escherichia coli cell, mean ± SD (n = 2)
Protocol: For the spectrophotometric method, the 500 μl assay solutions consisted of 15 units glutamate dehydrogenase, 12 mM α-ketoglutarate, 0.6 mM NADH (a reduced form of NAD (nicotinamide adenine dinucleotide)) and varying concentrations of synthetic substrate in 50 mM Tris-HCl, pH 8.0. Reactions were started by the addition of QC (0.04 to 2.5 μg), and the activity was monitored by recording the decrease of NADH absorbance at 340 nm.
The Km and kcat values determined for the recombinant protein of the invention were very similar to the human QC expressed in Drosophila S2 cells, as evident in Table 1.
Target sequence in this assay (Q16769 33-361): as the sequence (Q16769 33-361) above

Human QC [5] = target: T1, Human QC; experiment: QC activity analysis by reverse-phase HPLC on [Gln1]-TRH; assay type: biochemical; design: corresponding to the coding region of human QC (Ala33-Leu361) was re-amplified and inserted into a pET-43.1a expression vector; Nus fusion (pET-43.1a construct) or thioredoxin fusion (pET-32a construct) (N, cleaved yes); (His)6 (pET-43.1a construct: N- and C-terminal sites; pET-32a construct: 5'-end, upstream of the Factor Xa site); made in house; host or cells: E. coli BL21 (DE3); conditions: 50 mM Tris-HCl
Protocol: QC activity was analyzed based on reverse-phase HPLC and spectrophotometric measurement. […] A reaction without addition of human QC was provided as a control in the assay. Subsequently, a 20 μl aliquot of the mixture was subjected to HPLC analysis on a Waters liquid chromatograph using a C18 column (Waters, Milford, Mass.). The bound materials were eluted by a three-step linear gradient of methanol containing 0.1% trifluoroacetic acid (TFA). The eluates were detected at 214 nm and identified by mass spectrometry and N-terminal sequencing.
The synthetic [Gln^1]-TRH (Gln-His-Pro), one of the putative physiological substrates of human QC, was used to analyze the QC activity of the recombinant protein based on the HPLC elution profile of the peptide.
Target sequence in this assay (Q16769 33-361): as above

Compound: c1ccc(Cn2ccnc2)cc1 [1-benzylimidazole]
- remaining activity at 140 µM (Human QC [1]): 41.5%

Compound: Nc1n[nH]c(N)n1 [3,5-diamino-1,2,4-triazole]
- remaining activity at 140 µM (Human QC [1]): 89.9%

Compound: Nc1nc[nH]n1 [3-amino-1,2,4-triazole]
- remaining activity at 140 µM (Human QC [1]): 84.5%

Compound: O=c1[nH][nH]c(=O)n1-c1ccccc1 [4-phenyl-1,2,4-triazoleine-3,5-dione]
- remaining activity at 140 µM (Human QC [1]): 78.2%

Compound: CSc1nnn[nH]1 [5-(methylthio)-1H-tetrazole]
- remaining activity at 140 µM (Human QC [1]): 89.1%

Compound: NC(=O)CC[C@H](NC(=O)[C@@H](N)CCC(N)=O)C(=O)O [Gln-Gln, H-Gln-Gln-OH] (H-Gln-Gln-OH)
- Km (Human QC [2]): 100 µM
- kcat (Human QC [2]): 20.7 ± 0.2 s⁻¹
- Km (Human QC [3]): 700 ± 400 µM
- kcat (Human QC [3]): 10.0 s⁻¹

Compound: c1ccc(N=c2[n-][n+](-c3ccccc3)cn2-c2ccccc2)cc1 [nitron]
- QC activity (% of control) (Human QC [1]): 61.4 % of control

Further lines, with some results ahead:

- kcat (Human QC [4]): 20.9 ± 2.1 s⁻¹
- Km (Human QC [4]; 50 mM Tris-HCl, pH 8.0): 4100 ± 600 µM
Compound: CC(C)(C)OC(=O)[C@@H](N)CCC(N)=O [Gln-t-butyl ester, H-Gln-t-butyl ester]
- Km (Human QC [2]): 1200 ± 100 µM
- kcat (Human QC [2]): 6.7 ± 0.2 s⁻¹
- Km (Human QC [3]): 6700 ± 2000 µM
- kcat (Human QC [3]): 16.0 s⁻¹

- remaining activity at 140 µM (Human QC [1]): 90.6%
Compound: CCOC(=O)Cc1nnn[nH]1 [ethyl 1H-tetrazole-5-acetate]

- Turnover in the absence of human QC (Human QC [5]; 5 days, pH 8.0, at 25° C., no enzyme): less than 20%
- Conversion into [pGlu1]-TRH by human QC (Human QC [5]; within 20 minutes, 0.6 μM human QC, 14.8 mM substrate, pH 8.0, 25° C.): almost completely converted
Compound: [Gln^1]-TRH (Gln-His-Pro)
